Reference: PubChem BioAssay (NCI)
Where “and” joins values, the source holds several entries; their conditions need not be identical. Identical values can stand only once.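 Values below derive from 48-hour exposures of cells grown in 96-well plates, with endpoints linearly interpolated between the two concentrations bracketing the appropriate inhibition level. Here, GI50 denotes the concentration required for 50% inhibition of growth. The concentration for full growth arrest is given as TGI.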

What was measured:
Assay in all cases: NCI tumour cell line growth inhibition, 48 h
DMS 273 small cell lung = tested on: DMS 273 small cell lung
M19-MEL melanoma = tested on: M19-MEL melanoma
KM20L2 colon = tested on: KM20L2 colon
XF 498 CNS = tested on: XF 498 CNS
P388 leukemia = tested on: P388 leukemia
HOP-18 NSCLC = tested on: HOP-18 NSCLC
SN12K1 renal = tested on: SN12K1 renal
P388/ADR leukemia = tested on: P388/ADR leukemia

Compound: CCCCCCCCCCCCCCCCNc1cccc2ccccc12
- TGI (DMS 273 small cell lung): > 100 µM
- TGI (M19-MEL melanoma): > 100 µM
- TGI (KM20L2 colon): > 100 µM

Compound: Cc1ccc(/C=N\NC2c3cc(Cl)ccc3Nc3nc(=O)[nH]c(C)c32)cc1 (configuration not stated)
- TGI (DMS 273 small cell lung): > 100 µM
- TGI (M19-MEL melanoma): > 100 µM
- TGI (KM20L2 colon): > 100 µM
- TGI (XF 498 CNS): > 100 µM

Compound: C[N+](C)([O-])CCOc1cc2c(c3ccccc13)-c1ccccc1C2=O
- TGI (DMS 273 small cell lung): 43.9 µM
- TGI (M19-MEL melanoma): 36.2 µM
- TGI (P388 leukemia): > 100 µM
- TGI (KM20L2 colon): > 63.5 µM
- TGI (HOP-18 NSCLC): > 100 µM
- TGI (SN12K1 renal): 37.8 µM
- TGI (P388/ADR leukemia): > 45.2 µM
- TGI (XF 498 CNS): 37.9 µM

Compound: On1c(-c2ccccc2)c(-c2ccccc2N2CCCC2)c2ccccc21
- TGI (DMS 273 small cell lung): > 100 µM
- TGI (M19-MEL melanoma): > 100 µM
- TGI (KM20L2 colon): > 100 µM
- TGI (HOP-18 NSCLC): > 100 µM
- TGI (XF 498 CNS): > 100 µM

Compound: CCOC(=O)C1S/C(=N\C(=N)N[N+](=O)[O-])N=C1C (configuration not stated)
- TGI (M19-MEL melanoma): > 100 µM
- TGI (KM20L2 colon): > 100 µM
- TGI (HOP-18 NSCLC): > 100 µM
- TGI (XF 498 CNS): > 100 µM

Compound: Cc1c2cc[n+](C)c(C)c2cc2c1[nH]c1ccccc12
- TGI (DMS 273 small cell lung): 39.1 µM
- TGI (M19-MEL melanoma): 11.9 µM
- TGI (P388 leukemia): 86.6 µM
- TGI (KM20L2 colon): 44.5 µM
- TGI (HOP-18 NSCLC): 11.8 µM
- TGI (SN12K1 renal): 16.8 µM
- TGI (P388/ADR leukemia): > 100 µM

Compound: O=C(O)COc1ccccc1C(=O)Nc1ccccc1
- TGI (DMS 273 small cell lung): > 100 µM
- TGI (M19-MEL melanoma): > 100 µM
- TGI (KM20L2 colon): > 100 µM
- TGI (XF 498 CNS): > 100 µM

Compound: O=C1OCC/C1=N/O
- TGI (DMS 273 small cell lung): > 100 µM
- TGI (M19-MEL melanoma): > 100 µM
- TGI (KM20L2 colon): > 100 µM
- TGI (HOP-18 NSCLC): > 100 µM

Compound: CCOC(=O)N1CCC(N[C@@H]2c3cc4c(cc3C(c3cc(OC)c(O)c(OC)c3)C3C(=O)OC[C@@H]32)OCO4)CC1 (some centres not stated)
- GI50 (DMS 273 small cell lung): 0.18 µM and 1.55 µM
- TGI (DMS 273 small cell lung): 6.03 µM and 9.02 µM
- TGI (M19-MEL melanoma): 12.8 µM and 10.2 µM
- GI50 (KM20L2 colon): 2.16 µM and 4.5 µM
- TGI (KM20L2 colon): 14.5 µM and 15.6 µM

Compound: CCCCCCCCCCCC[S+](C)C
- TGI (DMS 273 small cell lung): 17.2 µM
- TGI (M19-MEL melanoma): 6.45 µM
- TGI (P388 leukemia): 3.1 µM
- TGI (KM20L2 colon): 20.9 µM
- TGI (HOP-18 NSCLC): 14.9 µM
- TGI (SN12K1 renal): 18.8 µM
- TGI (P388/ADR leukemia): > 100 µM
- TGI (XF 498 CNS): 6.71 µM

Compound: O=C(O)C(Cl)(Cl)Cl
- TGI (DMS 273 small cell lung): > 100 µM
- TGI (M19-MEL melanoma): > 100 µM
- TGI (KM20L2 colon): > 100 µM
- TGI (HOP-18 NSCLC): > 100 µM
- TGI (XF 498 CNS): > 100 µM
